Measurements as given in PubChem BioAssay (NCI).
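Protocol summary: plate cells (96-well), add compound at 5 concentrations, incubate 48 h, interpolate endpoints linearly. TGI: total growth inhibition.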

Tests used:
Assay in all cases: NCI tumour cell line growth inhibition, 48 h
HCT-15 colon = tested on: HCT-15 colon
OVCAR-4 ovarian = tested on: OVCAR-4 ovarian
NCI-H226 lung = tested on: NCI-H226 lung
UO-31 renal = tested on: UO-31 renal
DMS 114 small cell lung = tested on: DMS 114 small cell lung
CAKI-1 renal = tested on: CAKI-1 renal
SK-MEL-5 melanoma = tested on: SK-MEL-5 melanoma
NCI-H522 lung = tested on: NCI-H522 lung
SF-539 CNS = tested on: SF-539 CNS
SNB-78 CNS = tested on: SNB-78 CNS
A549 NSCLC = tested on: A549 NSCLC
DLD-1 colon = tested on: DLD-1 colon
UACC-62 melanoma = tested on: UACC-62 melanoma
A498 renal = tested on: A498 renal
OVCAR-8 ovarian = tested on: OVCAR-8 ovarian
SNB-75 CNS = tested on: SNB-75 CNS
SN12C renal = tested on: SN12C renal
EKVX NSCLC = tested on: EKVX NSCLC
K-562 leukemia = tested on: K-562 leukemia
KM20L2 colon = tested on: KM20L2 colon
M19-MEL melanoma = tested on: M19-MEL melanoma
HOP-92 NSCLC = tested on: HOP-92 NSCLC
SF-268 CNS = tested on: SF-268 CNS
SK-MEL-2 melanoma = tested on: SK-MEL-2 melanoma
NCI-H460 lung = tested on: NCI-H460 lung
HOP-18 NSCLC = tested on: HOP-18 NSCLC
HCC-2998 colon = tested on: HCC-2998 colon
SK-MEL-28 melanoma = tested on: SK-MEL-28 melanoma
IGROV1 ovarian = tested on: IGROV1 ovarian
MALME-3M melanoma = tested on: MALME-3M melanoma
U251 CNS = tested on: U251 CNS
OVCAR-5 ovarian = tested on: OVCAR-5 ovarian
OVCAR-3 ovarian = tested on: OVCAR-3 ovarian
DMS 273 small cell lung = tested on: DMS 273 small cell lung
P388/ADR leukemia = tested on: P388/ADR leukemia
LOX IMVI melanoma = tested on: LOX IMVI melanoma
XF 498 CNS = tested on: XF 498 CNS
COLO 205 colon = tested on: COLO 205 colon
MOLT-4 leukemia = tested on: MOLT-4 leukemia
UACC-257 melanoma = tested on: UACC-257 melanoma
HL-60(TB) leukemia = tested on: HL-60(TB) leukemia
SK-OV-3 ovarian = tested on: SK-OV-3 ovarian
CCRF-CEM leukemia = tested on: CCRF-CEM leukemia
NCI/ADR-RES ovarian = tested on: NCI/ADR-RES ovarian
SF-295 CNS = tested on: SF-295 CNS
MCF7 breast = tested on: MCF7 breast
HCT-116 colon = tested on: HCT-116 colon
HT29 colon = tested on: HT29 colon
HOP-62 NSCLC = tested on: HOP-62 NSCLC
NCI-H23 lung = tested on: NCI-H23 lung
SN12K1 renal = tested on: SN12K1 renal
RXF 393 renal = tested on: RXF 393 renal
RPMI-8226 leukemia = tested on: RPMI-8226 leukemia
SNB-19 CNS = tested on: SNB-19 CNS
P388 leukemia = tested on: P388 leukemia
SW-620 colon = tested on: SW-620 colon
KM12 colon = tested on: KM12 colon
786-0 renal = tested on: 786-0 renal
M14 melanoma = tested on: M14 melanoma
ACHN renal = tested on: ACHN renal
LXFL 529 NSCLC = tested on: LXFL 529 NSCLC
TK-10 renal = tested on: TK-10 renal

CN(C)CCOc1cc2c(c3ccccc13)-c1ccccc1C2O (stereo unspecified)
TGI (HCT-15 colon): 25.5 µM | TGI (OVCAR-4 ovarian): 32.9 µM | TGI (NCI-H226 lung): 29.1 µM | TGI (UO-31 renal): 25.2 µM | TGI (DMS 114 small cell lung): 26.2 µM | TGI (CAKI-1 renal): 26.7 µM | TGI (SK-MEL-5 melanoma): 29.1 µM | TGI (NCI-H522 lung): 30.7 µM | TGI (SF-539 CNS): 27.5 µM | TGI (SNB-78 CNS): 31.6 µM | TGI (A549 NSCLC): 29.3 µM | TGI (DLD-1 colon): 30.2 µM | TGI (UACC-62 melanoma): 31.5 µM | TGI (A498 renal): 29.8 µM | TGI (OVCAR-8 ovarian): 24.7 µM | TGI (SNB-75 CNS): 24.7 µM | TGI (SN12C renal): 26.9 µM | TGI (EKVX NSCLC): 28.2 µM | TGI (K-562 leukemia): 38 µM | TGI (KM20L2 colon): 29.9 µM | TGI (M19-MEL melanoma): 30.9 µM | TGI (HOP-92 NSCLC): 19.5 µM | TGI (SF-268 CNS): 28.3 µM | TGI (SK-MEL-2 melanoma): 31.4 µM | TGI (NCI-H460 lung): 22 µM | TGI (HOP-18 NSCLC): 29.5 µM | TGI (HCC-2998 colon): 28.2 µM | TGI (SK-MEL-28 melanoma): 30.2 µM | TGI (IGROV1 ovarian): 32.4 µM | TGI (MALME-3M melanoma): 34.8 µM | TGI (U251 CNS): 28.9 µM | TGI (OVCAR-5 ovarian): 17.6 µM | TGI (OVCAR-3 ovarian): 30.1 µM | TGI (DMS 273 small cell lung): 29 µM | TGI (P388/ADR leukemia): 33.3 µM | TGI (LOX IMVI melanoma): 23.9 µM | TGI (XF 498 CNS): 25.7 µM | TGI (COLO 205 colon): 27.4 µM | TGI (MOLT-4 leukemia): 14.5 µM | TGI (UACC-257 melanoma): 29.4 µM | TGI (HL-60(TB) leukemia): 26.6 µM | TGI (SK-OV-3 ovarian): 30.1 µM | TGI (CCRF-CEM leukemia): 33.1 µM | TGI (NCI/ADR-RES ovarian): 19.5 µM | TGI (SF-295 CNS): 48.7 µM | TGI (MCF7 breast): 28.3 µM | TGI (HCT-116 colon): 26.9 µM | TGI (HT29 colon): 27.8 µM | TGI (HOP-62 NSCLC): 29 µM | TGI (NCI-H23 lung): 32.2 µM | TGI (SN12K1 renal): 19.5 µM | TGI (RXF 393 renal): 10.1 µM | TGI (RPMI-8226 leukemia): 31.2 µM | TGI (SNB-19 CNS): 20.2 µM | TGI (P388 leukemia): > 100 µM | TGI (SW-620 colon): 24.8 µM | TGI (KM12 colon): 29.5 µM

CCCCSCC(NC(=O)/C=C/c1c(C)[nH]c(=O)[nH]c1=O)C(=O)OC (stereo unspecified)
TGI (HCT-15 colon): > 450 µM | TGI (OVCAR-4 ovarian): > 89 µM | TGI (NCI-H226 lung): 291 µM | TGI (UO-31 renal): 243 µM | TGI (DMS 114 small cell lung): 271 µM | TGI (CAKI-1 renal): 155 µM | TGI (SK-MEL-5 melanoma): 176 µM | TGI (NCI-H522 lung): 132 µM | TGI (SF-539 CNS): 254 µM | TGI (SNB-78 CNS): 303 µM | TGI (A549 NSCLC): 401 µM | TGI (DLD-1 colon): 275 µM | TGI (UACC-62 melanoma): 198 µM | TGI (A498 renal): 224 µM | TGI (OVCAR-8 ovarian): 246 µM | TGI (SNB-75 CNS): 241 µM | TGI (SN12C renal): 269 µM | TGI (EKVX NSCLC): 188 µM | TGI (K-562 leukemia): 367 µM | TGI (KM20L2 colon): 355 µM | TGI (M19-MEL melanoma): 191 µM | TGI (HOP-92 NSCLC): 189 µM | TGI (SF-268 CNS): 341 µM | TGI (SK-MEL-2 melanoma): 121 µM | TGI (NCI-H460 lung): 177 µM | TGI (HOP-18 NSCLC): 330 µM | TGI (HCC-2998 colon): 132 µM | TGI (SK-MEL-28 melanoma): 317 µM | TGI (IGROV1 ovarian): 316 µM | TGI (MALME-3M melanoma): 65.7 µM | TGI (U251 CNS): 147 µM | TGI (OVCAR-5 ovarian): 300 µM | TGI (OVCAR-3 ovarian): 77.2 µM | TGI (DMS 273 small cell lung): 264 µM | TGI (P388/ADR leukemia): > 450 µM | TGI (LOX IMVI melanoma): > 450 µM | TGI (COLO 205 colon): 112 µM | TGI (MOLT-4 leukemia): 205 µM | TGI (UACC-257 melanoma): 235 µM | TGI (HL-60(TB) leukemia): 206 µM | TGI (SK-OV-3 ovarian): 226 µM | TGI (CCRF-CEM leukemia): 245 µM | TGI (NCI/ADR-RES ovarian): > 450 µM | TGI (SF-295 CNS): 272 µM | TGI (MCF7 breast): 114 µM | TGI (HCT-116 colon): 246 µM | TGI (HT29 colon): 357 µM | TGI (HOP-62 NSCLC): 252 µM | TGI (NCI-H23 lung): 339 µM | TGI (SN12K1 renal): 173 µM | TGI (RXF 393 renal): 267 µM | TGI (RPMI-8226 leukemia): 267 µM | TGI (SNB-19 CNS): 204 µM | TGI (P388 leukemia): 137 µM | TGI (SW-620 colon): 346 µM | TGI (KM12 colon): 157 µM

O=C(N/C(=C\c1ccccc1O)c1nc2ccccc2[nH]1)c1ccccc1
TGI (HCT-15 colon): > 100 µM | TGI (OVCAR-4 ovarian): > 100 µM | TGI (786-0 renal): > 100 µM | TGI (UO-31 renal): > 100 µM | TGI (DMS 114 small cell lung): > 100 µM | TGI (CAKI-1 renal): > 100 µM | TGI (SK-MEL-5 melanoma): > 100 µM | TGI (NCI-H522 lung): > 100 µM | TGI (SF-539 CNS): > 100 µM | TGI (SNB-78 CNS): > 100 µM | TGI (M14 melanoma): > 100 µM | TGI (A549 NSCLC): > 100 µM | TGI (UACC-62 melanoma): > 100 µM | TGI (A498 renal): > 100 µM | TGI (OVCAR-8 ovarian): > 100 µM | TGI (ACHN renal): > 100 µM | TGI (SNB-75 CNS): 36.1 µM | TGI (SN12C renal): > 100 µM | TGI (EKVX NSCLC): > 100 µM | TGI (K-562 leukemia): > 100 µM | TGI (KM20L2 colon): > 100 µM | TGI (M19-MEL melanoma): > 100 µM | TGI (HOP-92 NSCLC): > 100 µM | TGI (SF-268 CNS): > 100 µM | TGI (SK-MEL-2 melanoma): > 100 µM | TGI (NCI-H460 lung): > 100 µM | TGI (HOP-18 NSCLC): > 100 µM | TGI (HCC-2998 colon): > 100 µM | TGI (SK-MEL-28 melanoma): > 100 µM | TGI (IGROV1 ovarian): > 100 µM | TGI (MALME-3M melanoma): > 100 µM | TGI (U251 CNS): > 100 µM | TGI (OVCAR-5 ovarian): > 100 µM | TGI (OVCAR-3 ovarian): > 100 µM | TGI (DMS 273 small cell lung): > 100 µM | TGI (LOX IMVI melanoma): > 100 µM | TGI (LXFL 529 NSCLC): > 100 µM | TGI (XF 498 CNS): > 100 µM | TGI (COLO 205 colon): > 100 µM | TGI (MOLT-4 leukemia): > 100 µM | TGI (UACC-257 melanoma): > 100 µM | TGI (SK-OV-3 ovarian): > 100 µM | TGI (CCRF-CEM leukemia): > 100 µM | TGI (HCT-116 colon): > 100 µM | TGI (HT29 colon): > 100 µM | TGI (HOP-62 NSCLC): > 100 µM | TGI (NCI-H23 lung): > 100 µM | TGI (RXF 393 renal): > 100 µM | TGI (RPMI-8226 leukemia): > 100 µM | TGI (SNB-19 CNS): > 100 µM | TGI (TK-10 renal): 90.8 µM | TGI (SW-620 colon): > 100 µM | TGI (KM12 colon): > 100 µM
